# According to patent US20260083692A1 (Strongbridge Dublin Limited, priority 2018, published 2026):
# Like-named read-outs stand apart in the source and are kept apart here.
# How the values were obtained:
# [1] = biological target: T1, human OAT1 (Homo sapiens, UniProt Q4U2R8); settings: for Uptake (Average ± SD), OAT1: OAT1-expressing HEK293 cells; for Uptake (Average ± SD), Control: control HEK293 cells (vector only); for % control: relative to solvent control
# T1 sequence (Q4U2R8 1-563): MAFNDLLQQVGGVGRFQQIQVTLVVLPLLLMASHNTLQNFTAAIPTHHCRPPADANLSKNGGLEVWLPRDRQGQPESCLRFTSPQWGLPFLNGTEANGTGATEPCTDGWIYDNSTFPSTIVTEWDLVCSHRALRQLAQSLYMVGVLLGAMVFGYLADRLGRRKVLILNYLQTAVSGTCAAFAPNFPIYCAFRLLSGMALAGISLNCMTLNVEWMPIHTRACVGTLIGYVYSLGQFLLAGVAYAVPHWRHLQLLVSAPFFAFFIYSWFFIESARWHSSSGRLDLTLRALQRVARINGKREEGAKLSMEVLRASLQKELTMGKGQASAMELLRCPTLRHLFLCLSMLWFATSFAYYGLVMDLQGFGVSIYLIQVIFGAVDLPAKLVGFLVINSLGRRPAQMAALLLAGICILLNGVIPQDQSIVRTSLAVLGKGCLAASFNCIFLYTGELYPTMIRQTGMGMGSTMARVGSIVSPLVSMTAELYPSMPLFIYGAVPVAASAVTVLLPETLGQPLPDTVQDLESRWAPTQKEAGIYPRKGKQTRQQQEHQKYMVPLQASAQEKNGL
# [2] = biological target: T1, human OAT1; assay: cell-based
compound,measurement,setting,value
"NS(=O)(=O)c1cc(Cl)c(Cl)c(S(N)(=O)=O)c1 [Dichlorphenamide, 4,5-dichloro-1,3-benzenedisulfonamide]","Uptake (Average ± SD), OAT1",[1]; inhibitor 1 μM,6.99 pmol/mg protein
same,"Uptake (Average ± SD), OAT1",[1]; inhibitor 3 μM,5.99 ± 1.16 pmol/mg protein
same,"Uptake (Average ± SD), OAT1",[1]; inhibitor 10 μM,3.70 ± 0.44 pmol/mg protein
same,"Uptake (Average ± SD), OAT1",[1]; inhibitor 30 μM,3.25 ± 0.39 pmol/mg protein
same,"Uptake (Average ± SD), OAT1",[1]; inhibitor 100 μM,1.79 ± 0.25 pmol/mg protein
same,"Uptake (Average ± SD), OAT1",[1]; inhibitor 300 μM,1.47 ± 0.12 pmol/mg protein
same,"Uptake (Average ± SD), OAT1",[1]; inhibitor 1000 μM,0.669 ± 0.099 pmol/mg protein
same,"Uptake (Average ± SD), Control",[1]; inhibitor 1 μM,0.0857 pmol/mg protein
same,"Uptake (Average ± SD), Control",[1]; inhibitor 3 μM,0.107 ± 0.040 pmol/mg protein
same,"Uptake (Average ± SD), Control",[1]; inhibitor 10 μM,0.0571 ± 0.0257 pmol/mg protein
same,"Uptake (Average ± SD), Control",[1]; inhibitor 30 μM,0.612 ± 0.907 pmol/mg protein
same,"Uptake (Average ± SD), Control",[1]; inhibitor 100 μM,0.150 ± 0.026 pmol/mg protein
same,"Uptake (Average ± SD), Control",[1]; inhibitor 300 μM,0.0452 ± 0.0082 pmol/mg protein
same,"Uptake (Average ± SD), Control",[1]; inhibitor 1000 μM,0.119 ± 0.022 pmol/mg protein
same,IC50 parameters: Max,[1]; fit of OAT1 inhibition curve,Max: 115%
same,IC50 parameters: Min,[1]; fit of OAT1 inhibition curve,Min: 0%
same,Background corrected uptake rate,[1]; inhibitor 1 μM,6.90 pmol/mg/min
same,% control,[1]; inhibitor 1 μM,112%
same,Background corrected uptake rate,[1]; inhibitor 3 μM,5.88 pmol/mg/min
same,% control,[1]; inhibitor 3 μM,95.6%
same,Background corrected uptake rate,[1]; inhibitor 10 μM,3.64 pmol/mg/min
same,% control,[1]; inhibitor 10 μM,59.2%
same,Background corrected uptake rate,[1]; inhibitor 30 μM,2.64 pmol/mg/min
same,% control,[1]; inhibitor 30 μM,42.9%
same,Background corrected uptake rate,[1]; inhibitor 100 μM,1.64 pmol/mg/min
same,% control,[1]; inhibitor 100 μM,26.7%
same,Background corrected uptake rate,[1]; inhibitor 300 μM,1.42 pmol/mg/min
same,% control,[1]; inhibitor 300 μM,23.1%
same,Background corrected uptake rate,[1]; inhibitor 1000 μM,0.550 pmol/mg/min
same,% control,[1]; inhibitor 1000 μM,8.9%
same,IC50,[2],17.7 µM
CO[C@@H]1[C@@H](OC(N)=O)[C@@H](O)[C@H](Oc2ccc3c(O)c(NC(=O)c4ccc(O)c(CC=C(C)C)c4)c(=O)oc3c2C)OC1(C)C [Novobiocin],"Uptake (Average ± SD), OAT1",[1]; inhibitor 300 μM,0.425 ± 0.071 pmol/mg protein
same,"Uptake (Average ± SD), Control",[1]; inhibitor 300 μM,0.231 ± 0.048 pmol/mg protein
same,Background corrected uptake rate,[1]; inhibitor 300 μM,0.194 pmol/mg/min
same,% control,[1]; inhibitor 300 μM,3.2%
